Source: US11518760B2 (Liverpool School of Tropical Medicine, priority 2017, dated 2022)

test system: C6/36 Aedes albopictus cell line infected with Wolbachia pipientis (Wolbachia strain wAlbB); assay: In vitro insect cell line assay (anti-Wolbachia screen, SYTO 11 high content imaging); format: cell-based; conditions: 168 h; C6/36 Aedes albopictus cells infected with Wolbachia pipientis wAlbB, 7 days incubation, SYTO 11 imaging; read-out: In vitro anti-Wolbachia activity
In short: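 SYTO 11 staining (15 min), high-content imaging and texture analysis were the read-out on day 7. Before that, C6/36 mosquito cells carrying Wolbachia strain wAlbB were incubated at 26 °C with test compound at 5 μM final, alongside DMSO-only control wells.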

First: CCN(CC)c1ncnc2ccsc12 [Example 39]
Second: CC(C)(C)N(Cc1ccccc1C(F)(F)F)c1ncnc2ccsc12 [Example 85]
The EC50 of the first is higher: 1000 to 100000 nM for the first, 100 to 1000 nM for the second. The second is the more potent here.

`COc1ccc(CNc2nc(NC(C)C)nc3ccsc23)cc1` [Example 131, N^2-isopropyl-N^4-(4-methoxybenzyl)thieno[3,2-d]pyrimidine-2,4-diamine] and `CC(C)Nc1nc(NCc2ccc(S(C)(=O)=O)cc2)c2sccc2n1` [Example 118, N^2-isopropyl-N^4-(4-(methylsuifonyl)benzyl)thieno[3,2-d]pyrimidine-2,4-diamine] fall in the same range of EC50: 1000 to 100000 nM for the first, 1000 to 100000 nM for the second.

First: CC(C)Nc1nc(NCc2ccc(C#N)cc2)c2ccccc2n1 [Example 120, N^4-(4-cyanobenzyl)-N^2-isopropylquinazoline-2,4-diamine]
Second: COc1ccc(CNc2nc(NC(C)C)nc3ccccc23)cc1 [Example 138, N^2-isopropyl-N^4-(4-methoxybenzyl)quinazoline-2,4-diamine]
The EC50 of the first is lower: 100 to 1000 nM for the first, 1000 to 100000 nM for the second. The first is the more potent here.

`FC(F)(F)c1ccccc1CNc1nc(Cl)nc2ccccc12` [Example 57, 2-chloro-N-(2-(trifluoromethyl)benzyl)quinazolin-4-amine] and `Fc1ccc(CNc2ncnc3ccccc23)c(C(F)(F)F)c1` [Example 72, N-(4-fluoro-2-(trifluoromethyl)benzyl)quinazolin-4-amine] fall in the same range of EC50: 10 to 100 nM for the first, 10 to 100 nM for the second.

Compared with `FC1CCN(c2nc(NCc3cccnc3C(F)(F)F)c3cccnc3n2)C1` (centres unmarked) [Example 242, 2-(3-fluoropyrrolidin-1-yl)-N-((2-(trifluoromethyl)pyridin-3-yl)methyl)pyrido[2,3-a]pyrimidin-4-amine], `FC(F)O[C@@H]1CCN(c2nc(NCc3cccnc3C(F)(F)F)c3cccnc3n2)C1` [Example 280, (R)-2-(3-(difluoromethoxy)pyrrolidin-1-yl)-N-((2-(trifluoromethyl)pyridin-3-yl)methyl)pyrido[2,3-d]pyrimidin-4-amine] is lower in EC50: 1 to 10 nM for the first, 0.01 to 1 nM for the second. The second is the more potent here.

`C[C@H]1COCCN1c1nc(N2CCC2c2ccccc2C(F)(F)F)c2cccnc2n1` (stereo partly drawn) [Example 291, (3S)-3-methyl-4-(4-(2-(2-(trifluoromethyl)phenyl)azetidin-1-yl)pyrido[2,3-d]pyrimidin-2-yl)morpholine] and `CC1COCCN1c1nc(N2CCC2c2ccccc2C(F)(F)F)c2cccnc2n1` (centres unmarked) [Example 214, 3-methyl-4-(4-(2-(2-(trifluoromethyl)phenyl)azetidin-1-yl)pyrido[2,3-d]pyrimidin-2-yl)morpholine] fall in the same range of EC50: 0.01 to 1 nM for the first, 0.01 to 1 nM for the second.

First: FC(F)(F)c1ccccc1CNc1nc(NC2CNC2)nc2ncccc12 [Example 141, N^2-(azetidin-3-yl)-N^4-(2-(trifluoromethyl)benzyl)pyrido[2,3-d]pyrimidine-2,4-diamine]
Second: FC(F)(F)c1ccccc1CNc1nc(N2CCC(Cl)CC2)nc2ncccc12 [Example 198, 2-(4-chloropiperidin-1-yl)-N-(2-(trifluoromethyl)benzyl)pyrido[2,3-d]pyrimidin-4-amine]
The EC50 of the first is higher: 100 to 1000 nM for the first, 1 to 10 nM for the second. The second is the more potent here.

First: FC(F)C1CN(c2nc(NCc3cccnc3C(F)(F)F)c3cccnc3n2)C1 [Example 274, 2-(3-(difluoromethyl)azetidin-1-yl)-N-((2-(trifluoromethyl)pyridin-3-yl)methyl)pyrido[2,3-d]pyrimidin-4-amine]
Second: N#CC1CN(c2nc(NCc3cccnc3C(F)(F)F)c3cccnc3n2)C1 [Example 237, 1-(4-(((2-(trifluoromethyl)pyridin-3-yl)methyl)amino)pyrido[2,3-d]pyrimidin-2-yl)azetidine-3-carbonitrile]
The EC50 of the first is lower: 1 to 10 nM for the first, 100 to 1000 nM for the second. The first is the more potent here.

`FC(F)(F)c1ncccc1CNc1nc(N2CCOC3CC32)nc2ncccc12` (centres unmarked) [Example 294, 2-(2-oxa-5-azabicyclo[4.1.0]heptan-5-yl)-N-((2-(trifluoromethyl)pyridin-3-yl)methyl)pyrido[2,3-d]pyrimidin-4-amine] and `FC(F)(F)c1ccccc1CNc1nc(N2CCOC3CC32)nc2ncccc12` (centres unmarked) [Example 301, 2-(2-oxa-5-azabicyclo[4.1.0]heptan-5-yl)-N-(2-(trifluoromethyl)benzyl)pyrido[2,3-d)pyrimidin-4-amine] fall in the same range of EC50: 0.01 to 1 nM for the first, 0.01 to 1 nM for the second.

`CC(C)Nc1nc(N(C)Cc2cccnc2C(F)(F)F)c2cccnc2n1` [Example 160, N^2-isopropyl-N^4-methyl-N4-((2-(trifluoromethyl)pyridin-3-yl)methyl)pyrido[2,3-d]pyrimidine-2,4-diamine] and `CC(C)Nc1cc(NCc2cccnc2C(F)(F)F)c2cccnc2n1` [Example 165, N^2-isopropyl-N^4-((2-(trifluoromethyl)pyridin-3-yl)methyl)-1,8-naphthyridine-2,4-diamine] fall in the same range of EC50: 10 to 100 nM for the first, 10 to 100 nM for the second.

Compared with `CC(C)N(C)c1nc(N2CCCN2c2ccccc2C(F)(F)F)c2cccnc2n1` [Example 190, N-isopropyl-N-methyl-4-(2-(2-(trifluoromethyl)phenyl)pyrazolidin-1-yl)pyrido[2,3-d]pyrimidin-2-amine], `CC(C)N(C)c1nc(N2CCC2c2ccccc2C(F)(F)F)c2cccnc2n1` (centres unmarked) [Example 184, N-isopropyl-N-methyl-4-(2-(2-(trifluoromethyl)phenyl)azetidin-1-yl)pyrido[2,3-d]pyrimidin-2-amine] is lower in EC50: 100 to 1000 nM for the first, 0.01 to 1 nM for the second. The second is the more potent here.

`CC(C)Nc1nc(NCc2ccccc2F)c2sccc2n1` [Example 11] and `CC(C)Nc1nc(NCc2cccc(F)c2)c2sccc2n1` [Example 14, N^4-(3-fluorobenzyl)-N^2-isopropylthieno[3,2-d]pyrimidine-2,4-diamine] fall in the same range of EC50: 100 to 1000 nM for the first, 100 to 1000 nM for the second.

First: FC(F)(F)c1ncccc1CNc1nc(N2CCCC(C(F)(F)F)C2)nc2ncccc12 (centres unmarked) [Example 249, 2-(3-(trifluoromethyl)piperidin-1-yl)-N-((2-(trifluoromethyl)pyridin-3-yl)methyl)pyrido[2,3-d]pyrimidin-4-amine]
Second: FC(F)(F)c1ncccc1CNc1nc(N2CCC(C(F)(F)F)CC2)nc2ncccc12 [Example 235, 2-(4-(trifluoromethyl)piperidin-1-yl)-N-((2-(trifluoromethyl)pyridin-3-yl)methyl)pyrido[2,3-d]pyrimidin-4-amine]
The EC50 of the first is lower: under 0.01 nM for the first, 0.01 to 1 nM for the second. The first is the more potent here.

First: N#CC1CCCN1c1nc(NCc2cccnc2C(F)(F)F)c2cccnc2n1 (centres unmarked) [Example 238, 1-(4-(((2-(trifluoromethyl)pyridin-3-yl)methyl)amino)pyrido[2,3-d]pyrimidin-2-yl)pyrrolidine-2-carbonitrile]
Second: FC(F)(F)c1ncccc1CNc1nc(N2CCC(Cl)CC2)nc2ncccc12 [Example 199, 2-(4-chloropiperidin-1-yl)-N-((2-(trifluoromethyl)pyridin-3-yl)methyl)pyrido[2,3-d]pyrimidin-4-amine]
The EC50 of the first is higher: 10 to 100 nM for the first, 1 to 10 nM for the second. The second is the more potent here.

First: CC(C)[S+]([O-])c1nc(NCc2cccnc2C(F)(F)F)c2cccnc2n1 (centres unmarked) [Example 178, 2-(isopropylsulfinyl)-N-((2-(trifluoromethyl)pyridin-3-yl)methyl)pyrido[2,3-d]pyrimidin-4-amine]
Second: CC(C)Nc1nc(NCc2cccnc2C(F)(F)F)c2sccc2n1 [Example 153, N^2-isopropyl-N^4-((2-(trifluoromethyl)pyridin-3-yl)methyl)thieno[3,2-d]pyrimidine-2,4-diamine]
The EC50 of the first is higher: 1000 to 100000 nM for the first, 10 to 100 nM for the second.

`CC(C)Nc1nc(NCc2c(F)cccc2C(F)(F)F)c2cccnc2n1` [Example 166, N^4-(2-fluoro-6-(trifluoromethyl)benzyl)-N^2-isopropylpyrido[2,3-d]pyrimidine-2,4-diamine] and `CC(C)Nc1nc(NCc2ccccc2S(C)(=O)=O)c2cccnc2n1` [Example 127, N^2-isopropyl-N^4-(2-(methylsulfonyl)benzyl)pyrido[2,3-d]pyrimidine-2,4-diamine] fall in the same range of EC50: 100 to 1000 nM for the first, 100 to 1000 nM for the second.

`Cc1nc(NCc2ccccc2C(F)(F)F)c2sccc2n1` [Example 55, 2-methyl-N-(2-(trifluoromethyl)benzyl)thieno[3,2-d]pyrimidin-4-amine] and `CN(Cc1ccccc1C(F)(F)F)c1nc(C(F)(F)F)nc2ccsc12` [Example 62, N-methyl-2-(trifluoromethyl)-N-(2-(trifluoromethyl)benzyl)thieno[3,2-d]pyrimidin-4-amine] fall in the same range of EC50: 10 to 100 nM for the first, 10 to 100 nM for the second.

`CC(Nc1ncnc2cc(I)sc12)c1ccccc1C(F)(F)F` (centres unmarked) [Example 96, 6-iodo-N-(1-(2-(trifluoromethyl)phenyl)ethyl)thieno[3,2-d]pyrimidin-4-amine] and `Fc1ccccc1CNc1ncnc2ccsc12` [Example 22, N-(2-fluorobenzyl)thieno[3,2-d]pyrimidin-4-amine] fall in the same range of EC50: 1000 to 100000 nM for the first, 1000 to 100000 nM for the second.

First: COc1ccc(CNc2nc(NC(C)C)nc3ccsc23)cc1OC [Example 133, N^4-(3,4-dimethoxybenzyl)-N^2-isopropylthieno[3,2-d]pyrimidine-2,4-diamine]
Second: COc1cccc(CNc2nc(NC(C)C)nc3ccsc23)c1F [Example 26, N^4-(2-fluoro-3-methoxybenzyl)-N^2-isopropylthieno[3,2-d]pyrimidine-2,4-diamine]
The EC50 of the first is higher: 1000 to 100000 nM for the first, 100 to 1000 nM for the second.

First: FC(F)(F)c1ncccc1CNc1ncnc2ncc(Br)cc12 [Example 180]
Second: FC(F)(F)c1ncccc1CNc1nc(N2CCOC3(CCCC3)C2)nc2ncccc12 [Example 272, 2-(6-oxa-9-azaspiro[4.5]decan-9-yl)-N-((2-(trifluoromethyl)pyridin-3-yl)methyl)pyrido[2,3-d]pyrimidin-4-amine]
The EC50 of the first is higher: 1000 to 100000 nM for the first, 0.01 to 1 nM for the second. The second is the more potent here.

`FC(F)(F)c1ccccc1CNc1nc(CN2CCC(Cl)CC2)nc2ncccc12` [Example 222] and `COc1cc2c(NCc3cccnc3C(F)(F)F)nc(N3CCOCC3C)nc2nc1OC` (centres unmarked) [Example 308, 6,7-dimethoxy-2-(3-methylmorphoIino)-N-((2-(trifluoromethyl)pyridin-3-yl)methyl)pyrido[2,3-d]pyrimidin-4-amine] fall in the same range of EC50: 1000 to 100000 nM for the first, 1000 to 100000 nM for the second.

First: CC(C)Nc1nc(NCc2ccc(C#N)cc2)c2ncccc2n1 [Example 121, N^4-(4-cyanobenzyl)-N^2-isopropylpyrido[3,2-d]pyrimidine-2,4-diamine]
Second: CC(C)Nc1nc(NCc2ccccc2S(C)(=O)=O)c2ccccc2n1 [Example 112, N^2-isopropyl-N^4-(2-(methylsulfonyl)benzyl)quinazoline-2,4-diamine]
The EC50 of the first is higher: 1000 to 100000 nM for the first, 100 to 1000 nM for the second. The second is the more potent here.
